PMC11183015, “In vivo stable ^211At-labeled prostate-specific membrane antigen-targeted tracer using a neopentyl glycol structure” (EJNMMI Radiopharmacy and Chemistry, 2024)
Marks after values point to notes of the source that are not given here.

What was measured:
[1] = Lipophilicity (log D7.4), 1-octanol/PBS pH 7.4; assay type: physicochemical
Protocol: [^125I]I-NpG-D-PSMA (3.7 kBq) was mixed with equal amounts (3.0 mL) of 1-octanol and PBS buffer (pH 7.4). The mixture was vortexed for 1 min and allowed to stand for 1 min. After repeating the procedure five times, the mixture was centrifuged at 1,500 g (3740, Kubota, Tokyo) for 10 min. Samples (0.2-2 mL) were taken from each phase and their radioactivity was measured with an auto-well γ-counter. The partition coefficient was determined by calculating the ratio of the counts per minute in the 1-octanol phase to that in the buffer phase and expressed as common logarithm. The results represent the mean of three measurements.

[2] = Analysis of radiometabolites in urine by RP-HPLC; assay type: in vivo, mouse; settings: normal ddY mice, urine up to 6 h after injection
Protocol: Urine samples were collected from 6-week-old ddY mice 6 h after injection of each ^125I-labeled PSMA derivative (100 µL, 370 kBq). After ethanol precipitation of proteins, the urine samples were filtered through a polycarbonate membrane (0.45 µm) and analyzed by RP-HPLC (System 2).

[3] = system: LNCaP cell xenografts; assay: Biodistribution of radioactivity in tumor-bearing mice; assay type: in vivo, mouse; settings: for Radioactivity in Intestine / Radioactivity in Neck / Radioactivity in Stomach: LNCaP tumor-bearing BALB/c-nu/nu mice; for Radioactivity in Blood / Radioactivity in Bone / Radioactivity in Heart / Radioactivity in Kidney / Radioactivity in Liver / Radioactivity in Lung / Radioactivity in Muscle / Radioactivity in Pancreas / Radioactivity in Spleen / Radioactivity in Tumor: male, BALB/c-nu/nu, mouse, in vivo
Protocol: Animal studies were conducted in accordance with the institutional guidelines approved by the Chiba University Animal Care Committee (Permit No. 4–183). Five-week-old male ddY mice and BALB/c-nu/nu mice were purchased from Japan SLC Inc. (Hamamatsu, Japan). LNCaP cells (5.0 × 10^6 cells) were suspended in 100 μL of PBS and Matrigel (BD Biosciences, Franklin Lakes, NJ, USA) in a 1:1 ratio. Tumor xenograft models were prepared via subcutaneous injection of this LNCaP cell suspension into BALB/c nude mice.
(§1) Biodistribution studies were conducted using male BALB/c-nu/nu mice bearing LNCaP cell xenografts at 1 and 3 h postinjection of [^211At]At-NpG-D-PSMA (100 µL, 37 kBq) and 1 and 6 h postinjection of ^125I-labeled PSMA derivative (100 µL, 11.1 kBq). In the blocking study, [^125I]I-NpG-D-PSMA was coinjected with 2-PMPA (50 mg/kg weight) into tumor-bearing mice via the tail vein. At 1 h postinjection, the mice were sacrificed. The tissues of interest were excised and weighed, and the radioactivity counts in each tissue were determined using an auto-well gamma counter. Each value was expressed as the mean percent injected dose/g tissue ± SD for a group of 3–5 animals, except those for the stomach, intestine, and thyroid.

[4] = molecular target: PSMA (Homo sapiens, UniProt Q04609); assay: Blocking study with 2-PMPA in tumor-bearing mice; assay type: in vivo, mouse; parameters: Tumor accumulation of [^125I]I-NpG-D-PSMA with or without 2-PMPA; from tissue; host or cells: LNCaP xenograft tumor in male BALB/c-nu/nu mice; settings: LNCaP tumor-bearing mice, 2-PMPA 50 mg/kg coinjected, 1 h
Sequence of PSMA (Q04609 whole entry): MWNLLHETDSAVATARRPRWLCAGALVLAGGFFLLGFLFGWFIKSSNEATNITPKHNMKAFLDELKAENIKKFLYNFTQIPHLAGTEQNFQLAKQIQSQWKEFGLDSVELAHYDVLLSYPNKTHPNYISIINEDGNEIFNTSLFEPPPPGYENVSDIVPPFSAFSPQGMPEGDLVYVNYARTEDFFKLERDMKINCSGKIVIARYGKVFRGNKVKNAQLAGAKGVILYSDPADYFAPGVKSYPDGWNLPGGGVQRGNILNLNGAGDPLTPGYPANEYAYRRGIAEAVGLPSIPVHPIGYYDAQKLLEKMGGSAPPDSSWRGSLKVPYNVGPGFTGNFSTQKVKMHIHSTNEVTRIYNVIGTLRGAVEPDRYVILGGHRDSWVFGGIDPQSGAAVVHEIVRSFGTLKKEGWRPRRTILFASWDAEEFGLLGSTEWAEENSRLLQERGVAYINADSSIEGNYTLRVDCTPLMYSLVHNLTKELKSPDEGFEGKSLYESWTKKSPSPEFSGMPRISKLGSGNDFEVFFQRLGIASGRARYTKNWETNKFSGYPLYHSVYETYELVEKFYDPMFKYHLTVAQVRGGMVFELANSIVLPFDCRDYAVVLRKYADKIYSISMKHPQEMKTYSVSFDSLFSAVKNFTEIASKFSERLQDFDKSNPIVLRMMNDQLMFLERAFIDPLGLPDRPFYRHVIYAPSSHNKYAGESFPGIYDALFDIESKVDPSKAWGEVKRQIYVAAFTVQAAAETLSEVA
Protocol: as §1

[5] = Biodistribution of radioactivity in normal mice; assay type: in vivo, mouse
Protocol: Six-week-old male ddY mice were injected via the tail vein with each radiolabeled PSMA derivative. Animals were sacrificed and the organs were dissected at 10 min, 1 h, 3 h, and 6 h after injection. Metabolic cages were used for housing normal mice. The tissues of interest were excised and weighed, and the radioactivity counts in each tissue were determined using an auto-well gamma counter. Each value was expressed as the mean percent injected dose/g tissue ± SD for a group of 3–5 animals, except those for the stomach, intestine, and thyroid.

[6] = normal ddY mice, i.v., 6 h, metabolic cages

O=C(O)CCC(NC(=O)NC(CCCCNC(=O)C(Cc1ccc2ccccc2c1)NC(=O)C(CCC(=O)O)NC(=O)C(CCC(=O)O)NC(=O)COCC(CO)(CO)C[125I])C(=O)O)C(=O)O [[^125I]I-NpG-D-PSMA] [listing 1 of 2 here]
logD [1]: -3.14 ± 0.03

O=C(O)CCC(NC(=O)NC(CCCCNC(=O)C(Cc1ccc2ccccc2c1)NC(=O)C(CCC(=O)O)NC(=O)C(CCC(=O)O)NC(=O)COCC(CO)(CO)C[125I])C(=O)O)C(=O)O [[^125I]I-NpG-D-PSMA] [listing 2 of 2 here]
Form of radioactivity excreted in urine [2]: only intact [^125I]I-NpG-D-PSMA | Radioactivity in Intestine ([3]; 1 h): 1.66 ± 0.29 %ID | Radioactivity in Neck ([3]; 1 h): 0.77 ± 0.17 %ID | Radioactivity in Stomach ([3]; 1 h): 0.19 ± 0.04 %ID | Radioactivity in Intestine ([3]; 6 h): 1.51 ± 0.61 %ID | Radioactivity in Neck ([3]; 6 h): 0.10 ± 0.01 %ID | Radioactivity in Stomach ([3]; 6 h): 0.17 ± 0.10 %ID | Radioactivity in Blood ([3]; 1 h): 0.64 ± 0.04 %ID/g | Radioactivity in Bone ([3]; 1 h): 0.25 ± 0.02 %ID/g | Radioactivity in Heart ([3]; 1 h): 0.89 ± 0.09 %ID/g | Radioactivity in Kidney ([3]; 1 h): 275 ± 17.6 %ID/g | Radioactivity in Liver ([3]; 1 h): 0.79 ± 0.06 %ID/g | Radioactivity in Lung ([3]; 1 h): 2.80 ± 0.09 %ID/g | Radioactivity in Muscle ([3]; 1 h): 0.27 ± 0.05 %ID/g | Radioactivity in Pancreas ([3]; 1 h): 0.84 ± 0.25 %ID/g | Radioactivity in Spleen ([3]; 1 h): 30.5 ± 7.49 %ID/g | Radioactivity in Tumor ([3]; 1 h): 20.4 ± 6.92 %ID/g | Radioactivity in Blood ([3]; 6 h): 0.06 ± 0.03 %ID/g | Radioactivity in Bone ([3]; 6 h): 0.07 ± 0.02 %ID/g | Radioactivity in Heart ([3]; 6 h): 0.10 ± 0.04 %ID/g | Radioactivity in Kidney ([3]; 6 h): 160 ± 89.9 %ID/g | Radioactivity in Liver ([3]; 6 h): 0.07 ± 0.03 %ID/g | Radioactivity in Lung ([3]; 6 h): 0.22 ± 0.09 %ID/g | Radioactivity in Muscle ([3]; 6 h): 0.07 ± 0.04 %ID/g | Radioactivity in Pancreas ([3]; 6 h): 0.12 ± 0.05 %ID/g | Radioactivity in Spleen ([3]; 6 h): 1.55 ± 0.75 %ID/g | Radioactivity in Tumor ([3]; 6 h): 20.8 ± 6.84 %ID/g | Accumulation in the tumor and spleen with coinjected 2-PMPA [4]: inhibited by 2-PMPA | Radioactivity in Blood ([5]; normal ddY mice, i.v., 10 min): 1.31 ± 0.10^c %ID/g | Radioactivity in Bone ([5]; normal ddY mice, i.v., 10 min): 0.71 ± 0.07^c %ID/g | Radioactivity in Heart ([5]; normal ddY mice, i.v., 10 min): 0.76 ± 0.08^c %ID/g | Radioactivity in Intestine ([5]; normal ddY mice, i.v., 10 min): 2.76 ± 0.02^c %ID | Radioactivity in Kidney ([5]; normal ddY mice, i.v., 10 min): 58.5 ± 2.27^c %ID/g | Radioactivity in Liver ([5]; normal ddY mice, i.v., 10 min): 0.83 ± 0.12^c %ID/g | Radioactivity in Lung ([5]; normal ddY mice, i.v., 10 min): 2.11 ± 0.16^c %ID/g | Radioactivity in Muscle ([5]; normal ddY mice, i.v., 10 min): 0.47 ± 0.07^c %ID/g | Radioactivity in Neck ([5]; normal ddY mice, i.v., 10 min): 0.48 ± 0.06^c %ID | Radioactivity in Pancreas ([5]; normal ddY mice, i.v., 10 min): 0.63 ± 0.15^c %ID/g | Radioactivity in Spleen ([5]; normal ddY mice, i.v., 10 min): 2.09 ± 0.83 %ID/g | Radioactivity in Stomach ([5]; normal ddY mice, i.v., 10 min): 0.28 ± 0.06 %ID | Radioactivity in Blood ([5]; normal ddY mice, i.v., 1 h): 0.18 ±0.02 %ID/g | Radioactivity in Bone ([5]; normal ddY mice, i.v., 1 h): 0.30 ± 0.25 %ID/g | Radioactivity in Heart ([5]; normal ddY mice, i.v., 1 h): 0.14 ± 0.7 %ID/g | Radioactivity in Intestine ([5]; normal ddY mice, i.v., 1 h): 2.97 ± 0.24^c %ID | Radioactivity in Kidney ([5]; normal ddY mice, i.v., 1 h): 74.6 ± 14.9^c %ID/g | Radioactivity in Liver ([5]; normal ddY mice, i.v., 1 h): 0.17 ± 0.07 %ID/g | Radioactivity in Lung ([5]; normal ddY mice, i.v., 1 h): 0.38 ± 0.06 %ID/g | Radioactivity in Muscle ([5]; normal ddY mice, i.v., 1 h): 0.11 ± 0.08 %ID/g | Radioactivity in Neck ([5]; normal ddY mice, i.v., 1 h): 0.11 ± 0.03^c %ID | Radioactivity in Spleen ([5]; normal ddY mice, i.v., 1 h): 0.20 ± 0.01 %ID/g | Radioactivity in Stomach ([5]; normal ddY mice, i.v., 1 h): 0.18 ± 0.00 %ID | Radioactivity in Blood ([5]; normal ddY mice, i.v., 3 h): 0.04 ± 0.02 %ID/g | Radioactivity in Bone ([5]; normal ddY mice, i.v., 3 h): 0.21 ± 0.28 %ID/g | Radioactivity in Heart ([5]; normal ddY mice, i.v., 3 h): 0.05 ± 0.04 %ID/g | Radioactivity in Intestine ([5]; normal ddY mice, i.v., 3 h): 3.30 ± 0.08^c %ID | Radioactivity in Kidney ([5]; normal ddY mice, i.v., 3 h): 22.9 ± 16.5 %ID/g | Radioactivity in Liver ([5]; normal ddY mice, i.v., 3 h): 0.05 ± 0.03 %ID/g | Radioactivity in Lung ([5]; normal ddY mice, i.v., 3 h): 0.12 ± 0.05 %ID/g | Radioactivity in Muscle ([5]; normal ddY mice, i.v., 3 h): 0.05 ± 0.03 %ID/g | Radioactivity in Neck ([5]; normal ddY mice, i.v., 3 h): 0.03 ± 0.02^c %ID | Radioactivity in Pancreas ([5]; normal ddY mice, i.v., 3 h): 0.20 ± 0.31 %ID/g | Radioactivity in Spleen ([5]; normal ddY mice, i.v., 3 h): 0.07 ± 0.05 %ID/g | Radioactivity in Stomach ([5]; normal ddY mice, i.v., 3 h): 0.27 ± 0.10^c %ID | Radioactivity in Blood ([5]; normal ddY mice, i.v., 6 h): 0.03 ± 0.01 %ID/g | Radioactivity in Bone ([5]; normal ddY mice, i.v., 6 h): 0.16 ± 0.17 %ID/g | Radioactivity in Heart ([5]; normal ddY mice, i.v., 6 h): 0.03 ± 0.01 %ID/g | Radioactivity in Intestine ([5]; normal ddY mice, i.v., 6 h): 6.19 ± 4.27 %ID | Radioactivity in Kidney ([5]; normal ddY mice, i.v., 6 h): 17.5 ± 5.43^c %ID/g | Radioactivity in Liver ([5]; normal ddY mice, i.v., 6 h): 0.05 ±0.03 %ID/g | Radioactivity in Lung ([5]; normal ddY mice, i.v., 6 h): 0.08 ± 0.00^c %ID/g | Radioactivity in Muscle ([5]; normal ddY mice, i.v., 6 h): 0.06 ± 0.07 %ID/g | Radioactivity in Neck ([5]; normal ddY mice, i.v., 6 h): 0.07 ± 0.09 %ID | Radioactivity in Pancreas ([5]; normal ddY mice, i.v., 6 h): 0.09 ± 0.12 %ID/g | Radioactivity in Spleen ([5]; normal ddY mice, i.v., 6 h): 0.05 ± 0.05 %ID/g | Radioactivity in Stomach ([5]; normal ddY mice, i.v., 6 h): 0.86 ± 0.65 %ID | Radioactivity in Feces [5, 6]: 0.66 ± 0.50 %ID | Radioactivity in Urine [5, 6]: 30.7 ± 2.85^c %ID | Accumulation in the stomach and thyroid (stability against deiodination) ([5]; normal mice): low accumulation
